Series [1] deals with Human Bladder Cancer TSGH cells. Description: MTT assay. The following applies: 72 hr. It is filed as cell-based. The procedure:
(§1) Human Bladder Cancer TSGH cells, Human hepatoblastoma HepG2 cells, Human colorectal adenocarcinoma HT-29 cells, human nasopharyngeal carcinoma KB cells, Human gastric adenocarcinoma AGS cells, Human breast carcinoma MCF-7 cells, lung carcinoma A549 cells, and Human prostate carcinoma PC-3 cells were used in the preliminary cytotoxicity assays of the benzenesulfonamide derivatives of the present invention, and the inhibition activity against the tumor cells was evaluated.
(§2) All cell lines were maintained in RPMI 1640 supplied with 10% fetal bovine serum and maintained in a humidified chamber at 37° C. containing 5% CO2. Then, all cell lines were treated with compounds for 72 hr and subsequently incubated with 0.4 mg/mL of MTT at 37° C. for 2 hr. The medium was removed, and DMSO was added to dissolve MTT precipitate. Cell proliferation was determined by measuring the optical density at 540 nm using a Thermomax microplate reader (Molecular Devices, Sunnyvale, Calif.), and the IC50 values of the benzenesulfonamide derivatives of the present invention were calculated.
(In general: Tetrazolium dyes change colour on reduction, which living cells bring about.)

The test system of series [2] is Human colorectal adenocarcinoma HT-29 cells. The experiment in a line: MTT assay. It is filed as cell-based. The following applies: 72 hr. As for the experimental part: as §1, §2
The subject of series [3] is Human hepatoblastoma HepG2 cells. Description: MTT assay. The following applies: 72 hr, read-out: IC50 HepaG2. It counts as cell-based. The procedure: as §1, §2
The test system of series [4] is human nasopharyngeal carcinoma KB cells. Description: MTT assay. It is filed as cell-based. As to conditions: Homo sapiens, MTT assay; for IC50: KB, 72 hr; for inhibition at 20 µM: KB cells, read-out: Percentage of tumor cells inhibited by 20 μM. As for the experimental part:
as §1, §2

Each structure is given as a SMILES string.

By IC50 is commonly meant the concentration needed to halve the response being measured. Broadly, the melting point is the temperature of the solid-liquid transition. `Cc1ccc(C)c2c1[nH]c1c(NS(=O)(=O)c3ccc(Cl)cc3)cccc12` [Compound 6d, 4-Chloro-N-(5,8-dimethyl-9H-carbazol-1-yl)benzenesulfonamide] yielded a melting point of 217 to 218 °C. For the same compound, the IC50 in series [1] is 90 µM. Besides, the IC50 in series [2] turned out to be 81.6 µM. For the same compound, in series [3], the IC50 came to 34.4 µM. Also, in series [4], the IC50 is above 20 µM and the inhibition at 20 µM amounted to 46%.

`O=S(=O)(Nc1cccc2cc[nH]c12)c1ccc(Cl)cc1` [Compound 5d, 4-Chloro-N-(1H-indol-7-yl)benzenesulfonamide] came in with a melting point of 163 to 164 °C. Moreover, the IC50 in series [1] was determined as 35.6 µM. Besides, in series [2], the IC50 amounted to 19.8 µM. In series [3], the IC50 stood at 14 µM. In series [4], this compound gave an IC50 of 20 µM.

For `Cc1ccc(S(=O)(=O)Nc2cccc3c2[nH]c2c(C)ccc(C)c23)cc1` [Compound 6b, N-(5,8-Dimethyl-9H-carbazol-1-yl)-4-methylbenzenesulfonamide], the melting point lay within 185 to 186 °C. Besides, the IC50 in series [1] amounted to 2.1 µM. This compound also gave an IC50 in series [2] of 1.1 µM. In addition, the IC50 in series [3] was 1.7 µM. The IC50 in series [4] stood at 2.5 µM.

Consider `Cc1ccc(S(=O)(=O)Nc2cccc3cc[nH]c23)cc1` [Compound 5b, N-(1H-Indol-7-yl)-4-methylbenzenesulfonamide], for which the melting point lay in the range of 159 to 160 °C. This compound also showed an IC50 in series [1] of 9.4 µM. The compound further had an IC50 in series [2] of 7.9 µM. Further, in series [3], the IC50 stood at 7.9 µM. Besides, in series [4], the IC50 is above 20 µM and the inhibition at 20 µM stood at 39%.

`Cc1ccc(C)c2c1[nH]c1c(NS(=O)(=O)c3ccccc3)cccc12` [Compound 6a, N-(5,8-Dimethyl-9H-carbazol-1-yl)benzenesulfonamide] showed a melting point of 237 to 238 °C. Moreover, in series [1], 160 µM corresponded to half-maximal inhibition (IC50). Moreover, the IC50 in series [2] is 141 µM. The IC50 in series [3] turned out to be 66.7 µM. Further, in series [4], the IC50 is above 20 µM and the inhibition at 20 µM is 32%.

Consider `Cc1ccc(C)c2c1[nH]c1c(NS(=O)(=O)c3cc(Cl)c(Oc4ccc([N+](=O)[O-])cc4Cl)c(Cl)c3)cccc12` [Compound 61, 3,5-Dichloro-4-(2-chloro-4-nitrophenoxy)-N-(5,8-dimethyl-9H-carbazol-1-yl)benzenesulfonamide], for which the melting point came to 249 °C.

For the compound `Cc1ccc(C)c2c1[nH]c1c(NS(=O)(=O)c3ccc(N)cc3)cccc12` [Compound 6f, 4-Amino-N-(5,8-dimethyl-9H-carbazol-1-yl)benzenesulfonamide], the melting point lay within 254 to 255 °C. The same compound returned an IC50 in series [1] of 39 µM. This compound displayed an IC50 in series [2] of 18.7 µM. Moreover, the IC50 in series [3] was determined as 16.6 µM. In series [4], the IC50 is above 20 µM and the inhibition at 20 µM stood at 34%.

`NS(=O)(=O)c1ccc(S(=O)(=O)Nc2cccc3cc[nH]c23)cc1` [Compound 5g, N-(1H-Indol-7-yl)-4-sulfamoylbenzenesulfonamide] returned a melting point of 215 to 216 °C. The compound also registered an IC50 in series [1] of 37.5 µM. In series [2], this compound returned an IC50 of 65.9 µM. In addition, the IC50 in series [3] was determined as 39.2 µM. In series [4], the IC50 is above 20 µM and the inhibition at 20 µM is 12%.

In turn, `Cc1ccc(C)c2c1[nH]c1c(NC(=O)Nc3ccccc3)cccc12` [Compound 14a, 1-(5,8-Dimethyl-9H-carbazol-1-yl)-3-phenylurea] returned a melting point of 300 to 301 °C.

For `COc1ccc(NC(=O)Nc2cccc3c2[nH]c2c(C)ccc(C)c23)cc1` [Compound 14b, 1-(5,8-Dimethyl-9H-carbazol-1-yl)-3-(4-methoxyphenyl)urea], the melting point was in the range of 262 to 263 °C.

Consider `Cc1ccc(C)c2c1[nH]c1c(NS(=O)(=O)c3ccccc3[N+](=O)[O-])cccc12` [Compound 6h, N-(5,8-Dimethyl-9H-carbazol-1-yl)-2-nitrobenzenesulfonamide], for which the melting point lay within 202 to 203 °C. In addition, the IC50 in series [1] was determined as 37.2 µM. The compound also showed an IC50 in series [2] of 17 µM. In addition, the IC50 in series [3] is 21 µM. In series [4], the IC50 was above 20 µM and the inhibition at 20 µM was found to be 24%.

`Cc1ccc(C)c2c1[nH]c1c(NS(=O)(=O)c3ccc(S(N)(=O)=O)cc3)cccc12` [Compound 6g, N-(5,8-Dimethyl-9H-carbazol-1-yl)-4-sulfamoylbenzenesulfonamide] came in with a melting point of 290 to 291 °C. In series [1], this compound displayed an IC50 of 80.7 µM. The compound further came in with an IC50 in series [2] of 124 µM. In addition, the IC50 in series [3] was found to be 139 µM. In series [4], half-maximal inhibition (IC50) was put at 19.1 µM.

The compound `O=[N+]([O-])c1ccc(S(=O)(=O)Nc2cccc3cc[nH]c23)cc1` [Compound 5e, N-(1H-Indol-7-yl)-4-nitrobenzenesulfonamide] showed a melting point of 185 to 186 °C. Further, in series [1], the IC50 amounted to 95.6 µM. The same compound came in with an IC50 in series [2] of 113 µM. The IC50 in series [3] stood at 46.9 µM. Besides, in series [4], the IC50 was above 20 µM and the inhibition at 20 µM was 14%.

`COc1cc(S(=O)(=O)Nc2cccc3c2[nH]c2c(C)ccc(C)c23)cc(OC)c1OC` [Compound 6i, N-(5,8-Dimethyl-9H-carbazol-1-yl)-3,4,5-trimethoxybenzenesulfonamide]: the melting point was 205 to 207 °C.

Compound `O=[N+]([O-])c1ccccc1S(=O)(=O)Nc1cccc2cc[nH]c12` [Compound 5h, N-(1H-Indol-7-yl)-2-nitrobenzenesulfonamide] registered a melting point of 187 to 188 °C. Further, in series [1], the IC50 amounted to 125 µM. Besides, the IC50 in series [2] was 126 µM. Further, the IC50 in series [3] is 87.8 µM. Besides, in series [4], the IC50 is above 20 µM and the inhibition at 20 µM is 13%.

`COc1ccc(S(=O)(=O)Nc2cccc3cc[nH]c23)cc1` [Compound 5c, N-(1H-Indol-7-yl)-4-methoxybenzenesulfonamide] yielded a melting point of 161 to 162 °C. This compound also gave an IC50 in series [1] of 2.4 µM. Also, in series [2], the IC50 came out at 1.7 µM. Besides, the IC50 in series [3] amounted to 1.9 µM. The compound further gave an IC50 in series [4] of 3.4 µM.

Regarding `Cc1ccc(S(=O)(=O)Nc2cccc3c(/N=N/c4ccccc4)c[nH]c23)cc1` [Compound 7b, 4-Methyl-N-(3-phenylazo-1H-indol-7-yl)benzenesulfonamide], the melting point fell in the range of 212 to 213 °C. In series [1], this compound displayed an IC50 of 16 µM. This compound also showed an IC50 in series [2] of 17.9 µM. In addition, the IC50 in series [3] turned out to be 30.8 µM. In series [4], the IC50 was above 20 µM and the inhibition at 20 µM was found to be 35%.

On to `Cc1ccc(C)c2c1[nH]c1c(NS(=O)(=O)c3ccc([N+](=O)[O-])cc3)cccc12` [Compound 6e, N-(5,8-Dimethyl-9H-carbazol-1-yl)-4-nitrobenzenesulfonamide], for which the melting point fell in the range of 202 to 203 °C. For the same compound, the IC50 in series [1] is 40.6 µM. In series [2], this compound yielded a half-maximal inhibitory concentration (IC50) of 17.6 µM. Moreover, in series [3], the IC50 was 19.8 µM. For the same compound, in series [4], the IC50 was above 20 µM and the inhibition at 20 µM came to 9%.

Consider `O=S(=O)(Nc1cccc2cc[nH]c12)c1ccccc1` [Compound 5a, N-(1H-Indol-7-yl)benzenesulfonamide], for which the melting point lay in the range of 178 to 179 °C. In addition, the midpoint of inhibition in series [1], the IC50, lay at 7.5 µM. The compound further yielded an IC50 in series [2] of 51.9 µM. The IC50 in series [3] turned out to be 44.7 µM. In series [4], the IC50 is above 20 µM and the inhibition at 20 µM stood at 30%.

(Values after US8173693B2, “Benzenesulfonamide derivatives and pharmaceutical composition thereof” (Purzer Pharmaceutical Co., Ltd., priority 2010, dated 2012).)
